Results: ChEMBL document CHEMBL4316582, “Nitro-Group-Containing Drugs” (J Med Chem, 2019)
Converted amounts (≈) assume the structure as drawn.

Experiments:
[1] = system: NCI-H460; assay: Cytotoxicity against human NCI-H460 cells assessed as reduction in cell viability after 2 hrs under normoxic conditions by Alamar blue assay; type: functional, cell-based; conditions: NCI-H460, 2 h
[2] = system: NCI-H460; assay: Cytotoxicity against human NCI-H460 cells assessed as reduction in cell viability after 2 hrs under hypoxic conditions by Alamar blue assay; type: functional, cell-based; conditions: NCI-H460, 2 h
[3] = system: Hep 3B2; assay: Cytotoxicity against human Hep3B cells after 24 hrs by MTS assay; type: functional, cell-based
[4] = system: Hep 3B2; assay: Cytotoxicity against human Hep3B cells after 24 hrs under hypoxic condition by MTS assay; type: functional, cell-based
[5] = biological target: Epidermal growth factor receptor (Homo sapiens, UniProt P00533); assay: Inhibition of erbB1 (unknown origin) using FRET-capable peptide substrate by FRET assay
Chain of Epidermal growth factor receptor (P00533 whole entry): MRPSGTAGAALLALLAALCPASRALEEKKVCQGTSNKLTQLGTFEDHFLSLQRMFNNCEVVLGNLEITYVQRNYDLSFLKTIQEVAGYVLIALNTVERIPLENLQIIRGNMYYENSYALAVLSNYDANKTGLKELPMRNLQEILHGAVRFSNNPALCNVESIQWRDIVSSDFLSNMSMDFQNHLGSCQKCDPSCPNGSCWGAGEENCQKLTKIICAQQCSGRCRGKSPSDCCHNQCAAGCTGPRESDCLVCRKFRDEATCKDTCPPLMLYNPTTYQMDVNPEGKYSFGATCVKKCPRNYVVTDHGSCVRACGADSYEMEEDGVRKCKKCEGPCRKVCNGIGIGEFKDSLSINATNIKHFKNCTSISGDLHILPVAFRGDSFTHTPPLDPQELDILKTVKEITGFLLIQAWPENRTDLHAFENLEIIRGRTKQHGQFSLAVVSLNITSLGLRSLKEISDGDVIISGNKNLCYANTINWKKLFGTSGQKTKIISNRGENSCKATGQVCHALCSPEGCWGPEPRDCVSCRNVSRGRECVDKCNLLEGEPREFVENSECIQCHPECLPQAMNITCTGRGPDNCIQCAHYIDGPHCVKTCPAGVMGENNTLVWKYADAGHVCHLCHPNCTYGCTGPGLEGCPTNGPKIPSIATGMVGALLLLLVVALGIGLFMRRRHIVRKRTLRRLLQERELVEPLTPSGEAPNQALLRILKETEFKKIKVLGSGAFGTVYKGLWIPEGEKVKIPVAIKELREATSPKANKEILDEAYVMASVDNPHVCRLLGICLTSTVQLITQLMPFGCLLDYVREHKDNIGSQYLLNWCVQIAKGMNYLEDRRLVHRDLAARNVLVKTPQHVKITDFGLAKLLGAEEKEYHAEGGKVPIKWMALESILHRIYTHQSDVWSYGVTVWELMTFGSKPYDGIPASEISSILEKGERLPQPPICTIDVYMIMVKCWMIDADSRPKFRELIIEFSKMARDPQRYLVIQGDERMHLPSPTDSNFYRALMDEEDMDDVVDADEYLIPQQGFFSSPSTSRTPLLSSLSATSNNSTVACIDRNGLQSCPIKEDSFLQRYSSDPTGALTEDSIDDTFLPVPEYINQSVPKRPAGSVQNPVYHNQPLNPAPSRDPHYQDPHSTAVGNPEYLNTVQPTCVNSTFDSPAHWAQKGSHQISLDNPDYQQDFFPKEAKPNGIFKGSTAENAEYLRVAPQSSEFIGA

[6] = system: NCI-H460; assay: Antiproliferative activity against human NCI-H460 cells in presence of N2; type: functional, cell-based
[7] = system: NCI-H460; assay: Antiproliferative activity against human NCI-H460 cells in presence of O2; type: functional, cell-based
[8] = system: NCI-H460; assay: Antiproliferative activity against human NCI-H460 cells; type: functional, cell-based
[9] = system: NCI-H460; assay: Ratio of IC50 for antiproliferative activity against human NCI-H460 cells in presence of O2 to antiproliferative activity against human NCI-H460 cells in presence of N2; type: functional
[10] = system: HT-29; assay: Cytotoxicity against human HT-29 cells assessed as reduction in cell viability after 2 hrs by Alamar blue assay; type: functional, cell-based; conditions: HT-29, 2 h
[11] = system: NCI-H460; assay: Cytotoxicity against human NCI-H460 cells assessed as reduction in cell viability after 2 hrs by Alamar blue assay; type: functional, cell-based; conditions: NCI-H460, 2 h
[12] = Cytotoxicity against human MiaPaCa cells assessed as reduction in cell viability after 2 hrs by Alamar blue assay; type: functional, cell-based; conditions: MIA PaCa-2, 2 h
[13] = system: Mycobacterium tuberculosis; assay: Antitubercular activity against drug-sensitive Mycobacterium tuberculosis; type: functional
[14] = system: Mycobacterium tuberculosis; assay: Antitubercular activity against Mycobacterium tuberculosis; type: functional
[15] = system: SK-OV-3; assay: Cytotoxicity against human SKOV3 cells; type: functional, cell-based
[16] = system: HT-29; assay: Cytotoxicity against human HT-29 cells; type: functional, cell-based

Compound `COc1cccc2c1C(=O)c1c(O)c3c(c(O)c1C2=O)C[C@@](O)(C(C)=O)C[C@@H]3O[C@H]1C[C@H](n2ccnc2[N+](=O)[O-])[C@H](O)[C@H](C)O1` has an IC50 [1] of 2300 nM and an IC50 [2] of 12 nM.
For `COc1ccc(C[C@@H](C)[C@@H](C)Cc2ccc(OCCOCCOCCOCCn3ccnc3[N+](=O)[O-])c(OC)c2)cc1OC`, the IC50 [3] was 13400 nM and the IC50 [4] was 13400 nM.
Compound `C[N+](C)(C/C=C/C(=O)Nc1ccc2ncnc(Nc3cccc(Br)c3)c2c1)Cc1ccccc1[N+](=O)[O-]` has an IC50 [5] of 0.22 to 0.56 nM.
`N#Cc1cc(COP(=O)(NCCBr)NCCBr)sc1[N+](=O)[O-]` gave an IC50 [6] of 6 nM, an IC50 [7] of 10 nM and an IC50 [8] of 20 nM.
With `NC(=O)c1cnc(N2CC2)c([N+](=O)[O-])c1` the IC50 [6] was 2300 nM, the IC50 [7] was 143000 nM and the “Ratio IC50” value [9] was 62.
In the case of `CC#Cc1c(OC)ccc2c(C(=O)c3cc(OC)c(OC)c(OC)c3)nn(Cn3cc[n+](Cc4ccc([N+](=O)[O-])o4)c3)c12`, the IC50 [10] is reported as 1 nM and the IC50 [11] is reported as 14 nM.
For `CC#Cc1c(OC)ccc2c(C(=O)c3cc(OC)c(OC)c(OC)c3)nn(C[N+](C)(C)Cc3c(-c4ccc(Br)o4)nc([N+](=O)[O-])n3C)c12`, the IC50 [10] was 17 nM and the IC50 [11] was 18 nM.
For `CC(=O)O[C@H]1C(=O)[C@@]2(C)[C@H]([C@H](OC(=O)c3ccccc3)[C@]3(O)C[C@H](OC(=O)[C@H](OC(=O)N(C)CCN(C)C(=O)OC(C)c4ccc([N+](=O)[O-])c(Oc5ccc6ncccc6c5)c4)[C@@H](NC(=O)c4ccccc4)c4ccccc4)C(C)=C1C3(C)C)[C@]1(OC(C)=O)CO[C@@H]1C[C@@H]2O` (stereo partly specified), the IC50 [8] was 30 nM.
Work on `Cn1c(C[N+](C)(C)C/C=C/C(=O)Nc2ccc3ncnc(Nc4cccc(Br)c4)c3c2)ccc1[N+](=O)[O-]` yielded an IC50 [5] of 0.22 to 0.56 nM.
`CC#Cc1c(OC)ccc2c(C(=O)c3cc(OC)c(OC)c(OC)c3)nn(C[N+](C)(C)Cc3ccc([N+](=O)[O-])o3)c12` showed an IC50 [10] of 12 nM and an IC50 [11] of 45 nM.
`NC(=O)c1cc(N2CC2)ncc1[N+](=O)[O-]` gave an IC50 [6] of 1100 nM and an IC50 [7] of 19600 nM.
With `COc1ccc(C[C@@H](C)[C@@H](C)Cc2ccc(OC)c(OCCOCCOCCOCCn3cnc([N+](=O)[O-])c3)c2)cc1OC` the IC50 [3] was 13000 nM and the IC50 [4] was 64300 nM.
In the case of `Cn1cnc([N+](=O)[O-])c1C[N+](C)(C)C/C=C/C(=O)Nc1ccc2ncnc(Nc3cccc(Br)c3)c2c1`, the IC50 [5] is reported as 0.22 to 0.56 nM.
`COc1ccc(C[C@@H](C)[C@@H](C)Cc2ccc(OCCOCCOCCOCCn3cnc([N+](=O)[O-])c3)c(OC)c2)cc1OC` showed an IC50 [3] of 12500 nM and an IC50 [4] of 52100 nM.
`C=Cc1nc([N+](=O)[O-])n(C)c1C[N+](C)(C)Cn1nc(C(=O)c2cc(OC)c(OC)c(OC)c2)c2ccc(OC)c(C#CC)c21` gave an IC50 [10] of 7 nM, an IC50 [12] of 20 nM and an IC50 [11] of 48 nM.
`CC(=O)O[C@H]1C(=O)[C@@]2(C)[C@H]([C@H](OC(=O)c3ccccc3)[C@]3(O)C[C@H](OC(=O)[C@H](OC(=O)N(C)CCN(C)C(=O)OCc4ccc([N+](=O)[O-])c(Oc5ccc6ncccc6c5)c4)[C@@H](NC(=O)c4ccccc4)c4ccccc4)C(C)=C1C3(C)C)[C@]1(OC(C)=O)CO[C@@H]1C[C@@H]2O` showed an IC50 [8] of 30 nM.
Work on `CC(OP(=O)(NCCBr)NCCBr)c1ccc([N+](=O)[O-])s1` (stereo unspecified) yielded an IC50 [6] of 30 nM, an IC50 [7] of 200 nM and an IC50 [8] of 500 nM.
In the case of `NC(=O)c1ccc([N+](=O)[O-])c(N2CC2)n1`, the IC50 [6] is reported as 1700 nM, the IC50 [7] is reported as 61000 nM and the “Ratio IC50” value [9] is reported as 35.9.
`CC#Cc1c(OC)ccc2c(C(=O)c3cc(OC)c(OC)c(OC)c3)nn(C[N+](C)(C)Cc3c(CCC)nc([N+](=O)[O-])n3C)c12` showed an IC50 [10] of 18 nM and an IC50 [11] of 40 nM.
For `FC(F)(F)Oc1ccc(CO[C@@H]2COc3nccn3C2)cc1`, the MIC [13] was 0.039 to 0.531 µg/mL (≈ 0.124 to 1.69 µM) and the MIC [14] was less than 2.8 µM.
`COc1cc2cc(C(=O)N3CC(CCl)c4c3cc([N+](=O)[O-])c3c(C(C)=O)cccc43)[nH]c2c(OC)c1OC` (stereo unspecified) showed an IC50 [15] of 500 nM and an IC50 [16] of 680 nM.
`CN(C)CCOc1ccc2[nH]c(C(=O)N3CC(CCl)c4c3cc([N+](=O)[O-])c3c(C#N)cccc43)cc2c1` (stereo unspecified) gave an IC50 [15] of 170 nM and an IC50 [16] of 120 nM.
With `COC(=O)c1ccc2c3c(cc([N+](=O)[O-])c2c1)N(C(=O)c1cc2cc(OCCN(C)C)ccc2[nH]1)CC3CCl` (stereo unspecified) the IC50 [15] was 440 nM and the IC50 [16] was 320 nM.
For `CC(=O)c1ccc2c([N+](=O)[O-])cc3c(c2c1)C(CCl)CN3C(=O)c1cc2cc(OCCN(C)C)ccc2[nH]1` (stereo unspecified), the IC50 [15] was 210 nM and the IC50 [16] was 150 nM.
For `Cn1c(COP(=O)(NCCBr)NCCBr)cnc1[N+](=O)[O-]` [EVOFOSFAMIDE], the IC50 [6] was 2000 nM, the IC50 [7] was 25000 nM and the IC50 [8] was greater than 100000 nM.
